In patent publication US20060276464A1, “Diarylsulfone sulfonamides and use thereof” (Wyeth, priority 2005, published 2006):
Read-outs that look alike come from different tables or passages of the source.

Target: T1, SFRP-1 (Homo sapiens, UniProt Q8N474)
T1 sequence (Q8N474 32-314): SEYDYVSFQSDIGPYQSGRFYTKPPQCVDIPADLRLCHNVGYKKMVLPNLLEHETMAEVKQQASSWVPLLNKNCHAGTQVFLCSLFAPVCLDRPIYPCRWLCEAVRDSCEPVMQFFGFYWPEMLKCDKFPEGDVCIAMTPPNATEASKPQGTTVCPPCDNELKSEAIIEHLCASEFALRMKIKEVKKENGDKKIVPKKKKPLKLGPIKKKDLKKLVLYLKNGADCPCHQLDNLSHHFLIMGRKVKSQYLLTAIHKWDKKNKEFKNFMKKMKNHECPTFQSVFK
Test: Cell-based assay for in vitro measurement of SFRP-1/SARP2 antagonist activity (U2OS cells co-transfected with 16x TCF-tk-Luciferase reporter, Wnt and hSFRP-1);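 also: U2OS cells co-transfected with a TCF-tk luciferase reporter, a Wnt vector, hSFRP-1 or empty vector and CMV-βgal, luciferase luminescence read in cell lysates alongside βgal activity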
Conditions: for fold induction at 15 µM / fold induction at 10 µM / fold induction at 30 µM / fold induction at 20 µM: U2OS; for fold induction at 10 µM: read-out: Fold Induction with SFRP-1, U2OS cells, single dose 10 μM, luciferase reporter, fold induction over SFRP-1 control

[1] = read-out: Fold Induction with SFRP-1, Conc 15 μM, single dose, luciferase reporter, fold induction over SFRP-1 control, cells with SFRP-1
[2] = read-out: Fold Induction without SFRP-1, Conc 15 μM, single dose, luciferase reporter, cells without SFRP-1 (specificity control)
[3] = read-out: Fold Induction with SFRP-1, Conc 15 μM, with SFRP-1, fold induction over SFRP-1 control, single dose
[4] = read-out: Fold Induction without SFRP-1, Conc 15 μM, without SFRP-1, single dose
[5] = read-out: Fold Induction with SFRP-1, Conc 30 μM, with SFRP-1, fold induction over SFRP-1 control, single dose
[6] = read-out: Fold Induction without SFRP-1, Conc 30 μM, without SFRP-1, single dose

Compound	fold induction at 15 µM [3]	fold induction at 15 µM [4]	also measured
CC(C)c1ccc(S(=O)(=O)c2ccc(F)cc2)cc1S(=O)(=O)NC1CC1 [Example 521, N-cyclopropyl-5-[(4-fluorophenyl)sulfonyl]-2-isopropylbenzenesulfonamide]			fold induction at 15 µM [1]: 1.7; fold induction at 15 µM [2]: 1
Cc1cc(S(=O)(=O)c2ccccc2)cc(S(=O)(=O)NC2CCNCC2)c1C [Example 922, 2,3-dimethyl-5-(phenylsulfonyl)-N-piperidin-4-ylbenzenesulfonamide]			fold induction at 10 µM: 1.1
Cc1ccc(S(=O)(=O)c2ccccc2)cc1S(=O)(=O)NC1CC(C)(C)NC(C)(C)C1 [Example 411, 2-methyl-5-(phenylsulfonyl)-N-(2,2,6,6-tetramethylpiperidin-4-yl)benzenesulfonamide]	1.6	1	
CC(C)c1ccc(S(=O)(=O)c2cc(F)cc(F)c2)cc1S(=O)(=O)NCCc1ccccn1 [Example 458, 5-[(3,5-difluorophenyl)sulfonyl]-2-isopropyl-N-(2-pyridin-2-ylethyl)benzenesulfonamide]	2.9	0.9	
Cc1ccc(S(=O)(=O)c2ccccc2)cc1S(=O)(=O)NCCc1ccc(S(N)(=O)=O)cc1 [Example 40, N-{2-[4-(aminosulfonyl)phenyl]ethyl}-2-methyl-5-(phenylsulfonyl)benzenesulfonamide]			fold induction at 30 µM [5]: 1.7; fold induction at 30 µM [6]: 0.9
COc1ccc(Br)cc1CCNS(=O)(=O)c1cc(S(=O)(=O)c2ccc(F)cc2)ccc1C [Example 30, N-[2-(5-bromo-2-methoxyphenyl)ethyl]-5-[(4-fluorophenyl)sulfonyl]-2-methylbenzenesulfonamide]	2.4	0.9	Fold Induction with SFRP-1 (Conc 30 μM, with SFRP-1, fold induction over SFRP-1 control, single dose): 1 fold; fold induction at 30 µM [5]: 1.7
O=S(=O)(c1ccccc1)c1ccc(Cl)c(S(=O)(=O)N2CCN(Cc3ccc4c(c3)OCO4)CC2)c1 [Example 637, 1-(1,3-benzodioxol-5-ylmethyl)-4-{[2-chloro-5-(phenylsulfonyl)phenyl]sulfonyl}piperazine]			fold induction at 15 µM [1]: 0.9; fold induction at 15 µM [2]: 1
O=C(NCCNS(=O)(=O)c1cc(S(=O)(=O)c2ccccc2)ccc1C(F)(F)F)c1ccc(F)cc1 [Example 777, 4-Fluoro-N-[2-({[5-(phenylsulfonyl)-2-(trifluoromethyl)phenyl]sulfonyl}amino)ethyl]benzamide]			fold induction at 10 µM: 1.1
CCN(CC)C1CCN(S(=O)(=O)c2cc(S(=O)(=O)c3ccccc3)ccc2Cl)C1 (centres unmarked) [Example 644, 1-{[2-chloro-5-(phenylsulfonyl)phenyl]sulfonyl}-N,N-diethylpyrrolidin-3-amine]			fold induction at 15 µM [1]: 1.3; fold induction at 15 µM [2]: 1.1
O=C(NCCNS(=O)(=O)c1cc(S(=O)(=O)c2ccccc2)ccc1C(F)(F)F)c1ccc(Br)cc1 [Example 779, 4-Bromo-N-[2-({[5-(phenylsulfonyl)-2-(trifluoromethyl)phenyl]sulfonyl}amino)ethyl]benzamide]			fold induction at 10 µM: 1
O=S(=O)(NCCO)c1cc(S(=O)(=O)c2ccccc2)ccc1Cl [Example 673, 2-chloro-N-(2-hydroxyethyl)-5-(phenylsulfonyl)benzenesulfonamide]			EC50: 15.9 µM; fold induction at 10 µM: 2
Cc1cc(C)cc(S(=O)(=O)c2ccc(C(C)C)c(S(=O)(=O)NCCc3ccccn3)c2)c1 [Example 454, 5-[(3,5-dimethylphenyl)sulfonyl]-2-isopropyl-N-(2-pyridin-2-ylethyl)benzenesulfonamide]	1.7	1.1	
CCc1ccc(S(=O)(=O)c2ccccc2)cc1S(=O)(=O)NCCOC [Example 229, 2-ethyl-N-(2-methoxyethyl)-5-(phenylsulfonyl)benzenesulfonamide]	2.6	0.8	
O=S(=O)(NCCN1CCOCC1)c1cccc(S(=O)(=O)c2ccccc2)c1 [Example 191, N-(2-morpholin-4-ylethyl)-3-(phenylsulfonyl)benzenesulfonamide]			fold induction at 30 µM [5]: 1.2; fold induction at 30 µM [6]: 1.2
Cc1cc(S(=O)(=O)c2ccccc2)cc(S(=O)(=O)NC2CCOCC2)c1C [Example 350, 2,3-dimethyl-5-(phenylsulfonyl)-N-(tetrahydro-2H-pyran-4-yl)benzenesulfonamide]	1.8	1.3	
CCOc1ccc(CCNS(=O)(=O)c2cc(S(=O)(=O)c3ccccc3)ccc2CC)cc1OC [Example 149, N-[2-(4-ethoxy-3-methoxyphenyl)ethyl]-2-ethyl-5-(phenylsulfonyl)benzenesulfonamide]	3.1	1.1	
Cc1ccc(S(=O)(=O)c2ccccc2)cc1S(=O)(=O)NC(=O)[C@@H](N)Cc1ccccc1 [Example 364, N-{[2-methyl-5-(phenylsulfonyl)phenyl]sulfonyl}-L-phenylalaninamide]	1.2	1	
CC(CO)NS(=O)(=O)c1cc(S(=O)(=O)c2ccccc2)ccc1Cl (centres unmarked) [Example 674, 2-chloro-N-(2-hydroxy-1-methylethyl)-5-(phenylsulfonyl)benzenesulfonamide]			EC50: 24.1 µM; fold induction at 10 µM: 2
Cc1ccc(S(=O)(=O)c2ccccc2)cc1S(=O)(=O)N1CCN(CCCN2CCOCC2)CC1 [Example 283, 4-[3-(4-{[2-methyl-5-(phenylsulfonyl)phenyl]sulfonyl}piperazin-1-yl)propyl]morpholine]	1.8	1.3	
Cc1ccc(C)n1CC1CCN(S(=O)(=O)c2cc(S(=O)(=O)c3ccccc3)ccc2Cl)CC1 [Example 653, 1-{[2-chloro-5-(phenylsulfonyl)phenyl]sulfonyl}-4-[(2,5-dimethyl-1H-pyrrol-1-yl)methyl]piperidine]			fold induction at 15 µM [1]: 1; fold induction at 15 µM [2]: 1
COc1ccc(S(=O)(=O)c2ccccc2)cc1S(=O)(=O)NCCCN1CCCC1 [Example 243, 2-methoxy-5-(phenylsulfonyl)-N-(3-pyrrolidin-1-ylpropyl)benzenesulfonamide]	2.4	1.9	
CN(C)CCCNS(=O)(=O)c1cccc(S(=O)(=O)c2ccccc2)c1 [Example 196, N-[3-(dimethylamino)propyl]-3-(phenylsulfonyl)benzenesulfonamide]			fold induction at 30 µM [5]: 1.4; fold induction at 30 µM [6]: 1.3
O=S(=O)(NC1Cc2ccccc2C1)c1cccc(S(=O)(=O)c2ccccc2)c1 [Example 258, N-2,3-dihydro-1H-inden-2-yl-3-(phenylsulfonyl)benzenesulfonamide]			fold induction at 20 µM (read-out: Fold Induction with SFRP-1, Conc 20 μM, with SFRP-1, fold induction over SFRP-1 control, single dose): 1.2; fold induction at 20 µM (read-out: Fold Induction without SFRP-1, Conc 20 μM, without SFRP-1, single dose): 1
Cc1ccc(S(=O)(=O)c2ccccc2)cc1S(=O)(=O)NC1CCN(Cc2ccccc2)C1 (centres unmarked) [Example 414, N-(1-benzylpyrrolidin-3-yl)-2-methyl-5-(phenylsulfonyl)benzenesulfonamide]	2	1.3	

Now from value to compound, other results behind:

fold induction at 15 µM [3]	fold induction at 15 µM [4]	Compound	also measured
1.9	1.2	CCc1ccc(S(=O)(=O)c2ccccc2)cc1S(=O)(=O)NCCCc1ccccc1 [Example 245, 2-ethyl-N-(3-phenylpropyl)-5-(phenylsulfonyl)benzenesulfonamide]	
0.8	0.8	Cc1ccc(S(=O)(=O)c2ccc(C)c(S(=O)(=O)N(C)CCc3ccccc3F)c2)cc1 [Example 275, N-[2-(2-fluorophenyl)ethyl]-N,2-dimethyl-5-[(4-methylphenyl)sulfonyl]benzenesulfonamide]	
1.1	0.9	Cc1ccc(S(=O)(=O)c2ccc(C)c(S(=O)(=O)NC[C@@H](C)c3ccccc3)c2)cc1 [Example 264, 2-methyl-5-[(4-methylphenyl)sulfonyl]-N-[(2S)-2-phenylpropyl]benzenesulfonamide]	Fold Induction with SFRP-1 (Conc 15 μM, with SFRP-1, fold induction over SFRP-1 control, single dose): 1.7 fold
1.2	1	COc1ccc(S(=O)(=O)c2ccccc2)cc1S(=O)(=O)NCCc1ccccn1 [Example 234, 2-methoxy-5-(phenylsulfonyl)-N-(2-pyridin-2-ylethyl)benzenesulfonamide]	
1.8	1.3	CCN(CC)CCNS(=O)(=O)c1cc(S(=O)(=O)c2ccccc2)ccc1C [Example 213, N-[2-(diethylamino)ethyl]-2-methyl-5-(phenylsulfonyl)benzenesulfonamide]	
2.7	1.2	CCc1ccc(S(=O)(=O)c2ccccc2)cc1S(=O)(=O)NC1Cc2ccccc2C1 [Example 266, N-2,3-dihydro-1H-inden-2-yl-2-ethyl-5-(phenylsulfonyl)benzenesulfonamide]	
2.3	1.1	CCc1ccc(S(=O)(=O)c2ccccc2)cc1S(=O)(=O)N1CCN(CCCN2CCOCC2)CC1 [Example 289, 4-[3-(4-{[2-ethyl-5-(phenylsulfonyl)phenyl]sulfonyl}piperazin-1-yl)propyl]morpholine]	
